Our source for the IC50 values is US10124004B2, “Pyrido[3,4-d]pyrimidine derivative and pharmaceutically acceptable salt thereof” (Teijin Pharma Limited, priority 2015, dated 2018).

pIC50: −log10 of the molar value.

Assay [1] concerns the target T1, CDK4/cyclin D3 (Homo sapiens, UniProt P11802).
T1 construct: purchased Carna Biosciences, Inc. QS S Assist CDK4/Cyclin D3_FP Kit
The assay is described as follows: Human CDK4/cyclin D3 inhibitory activity (QS S Assist CDK4/Cyclin D3_FP Kit, IMAP fluorescence polarization). It counts as biochemical. The conditions noted are these: Human CDK4/cyclin D3 inhibitory activity; read-out: CDK4 Activity symbol. In short, it runs like this: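 Percent inhibition, relative to DMSO with and without enzyme, was curve-fitted to give IC50 from polarization (ex 485, em 535 nm). The 45-min room-temperature reaction used 12.5-25 ng/well enzyme, kit ATP/substrate/metal mix, and HEPES pH 7.4 buffer with Tween20 and DTT, followed by 30-min IMAP binding in the dark.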

For assay [2], the target named is T2, CDK2/cyclin A2 (Homo sapiens, UniProt P24941).
T2 construct: purchased Carna Biosciences, Inc. QS S Assist CDK2/Cyclin A2_FP Kit
The assay is described as follows: Human CDK2/cyclin A2 inhibitory activity (QS S Assist CDK2/Cyclin A2_FP Kit, IMAP fluorescence polarization). The note with it: Human CDK2/cyclin A2 inhibitory activity; read-out: CDK2 Activity symbol. It counts as biochemical. An outline of the steps:
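Kinase activity read as fluorescence polarization (485/535 nm) after phosphorylated fluorescent substrate binds IMAP reagent (30 min, RT, dark). Enzyme (2.5 ng/well) reacted 60 min at RT with ATP/substrate/metal in HEPES pH 7.4 buffer with Tween 20 and DTT; no-enzyme wells define 0% activity; IC50 by curve fit.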
On the technique in general: Polarisation of emitted light reports the rotation of a fluorescent probe.

T1 sequence (P11802 whole entry): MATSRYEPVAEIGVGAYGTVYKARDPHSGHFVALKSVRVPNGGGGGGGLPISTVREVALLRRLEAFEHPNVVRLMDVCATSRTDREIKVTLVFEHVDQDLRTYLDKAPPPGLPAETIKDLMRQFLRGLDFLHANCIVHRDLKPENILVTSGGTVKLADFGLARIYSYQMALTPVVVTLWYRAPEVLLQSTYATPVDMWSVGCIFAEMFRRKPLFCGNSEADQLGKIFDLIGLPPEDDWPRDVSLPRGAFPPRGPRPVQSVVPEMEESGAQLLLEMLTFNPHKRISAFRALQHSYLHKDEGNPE
T1 sequence (P30281 whole entry partner): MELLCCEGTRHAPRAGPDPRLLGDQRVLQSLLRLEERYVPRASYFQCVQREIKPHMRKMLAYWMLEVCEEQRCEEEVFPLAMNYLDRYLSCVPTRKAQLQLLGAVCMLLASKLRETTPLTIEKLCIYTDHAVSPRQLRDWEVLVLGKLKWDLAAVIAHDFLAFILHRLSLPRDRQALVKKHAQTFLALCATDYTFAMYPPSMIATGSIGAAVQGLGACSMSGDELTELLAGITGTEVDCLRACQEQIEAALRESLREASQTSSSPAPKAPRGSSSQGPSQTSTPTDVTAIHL

In the case of `CC(C)Nc1nc(C(F)F)cc2cnc(Nc3ccc(NC(N)=O)cn3)nc12` [Compound 85], the pIC50 in assay [1] and in assay [2] was 7.00 to 8.00 each time.

With `CC(=O)Nc1ccc(Nc2ncc3cc(C(F)F)nc(NC(C)C)c3n2)nc1` [Compound 86], the pIC50 in assay [1] is 7.00 to 8.00; in assay [2], ≤ 7.00.

On to `CC(C)Nc1nc(C(F)F)cc2cnc(Nc3ccc(N)cn3)nc12` [Compound 87], for which the pIC50 in assay [1] and in assay [2] was > 8.00 throughout.

On to `CC(C)Nc1nc(C(F)F)cc2cnc(Nc3ccc(NS(C)(=O)=O)cn3)nc12` [Compound 88], for which the pIC50 in assay [1] and in assay [2] was ≤ 7.00 in each case.

In the case of `CC(C)Nc1nc(C(F)F)cc2cnc(Nc3ccc(N4CCNCC4=O)cn3)nc12` [Compound 89], the pIC50 in assay [1] is > 8.00; in assay [2], 7.00 to 8.00.

With `CC(C)Nc1nc(C(F)F)cc2cnc(Nc3ccc(N4CCC(C(=O)O)CC4)cn3)nc12` [Compound 90], the pIC50 in assay [1] and in assay [2] was 7.00 to 8.00 each time.

In the case of `CC(=O)c1cc2cnc(Nc3ccc(N4CCNCC4)cn3)nc2c(N(C)C(C)C)n1` [Compound 91], the pIC50 in assay [1] was > 8.00; in assay [2] it was ≤ 7.00.

In the case of `CC(O)c1cc2cnc(Nc3ccc(N4CCNCC4)cn3)nc2c(NC2CCOC2)n1` (stereo not shown) [Compound 92], the results for the pIC50 in assay [1] and in assay [2] were > 8.00 and ≤ 7.00, respectively.

`CC(O)c1cc2cnc(Nc3ccc(N4CCNCC4)cn3)nc2c(NC2CCCOC2)n1` (stereo not shown) [Compound 93]: the pIC50 in assay [1] is > 8.00; in assay [2] it was ≤ 7.00.

Turning to `CC(C)Nc1nc(C(F)F)cc2cnc(Nc3ccc(CN4CCOCC4)cn3)nc12` [Compound 94], the pIC50 in assay [1] is > 8.00; in assay [2], ≤ 7.00.

Consider `CC(C)Nc1nc(C(F)F)cc2cnc(Nc3ccc(NC(=O)CO)cn3)nc12` [Compound 95], for which the pIC50 in assay [1] is ≤ 7.00; in assay [2] it was 7.00 to 8.00.

As to `CC(C)Nc1nc(C(F)F)cc2cnc(Nc3ccc(C(N)=O)cn3)nc12` [Compound 96], the pIC50 in assay [1] and in assay [2] was 7.00 to 8.00 each time.

Take `CC(C)Nc1nc(C(F)F)cc2cnc(Nc3ccc(NC(=O)C(N)=O)cn3)nc12` [Compound 97]: the values for the pIC50 in assay [1] and in assay [2] were 7.00 to 8.00 and ≤ 7.00, respectively.

On to `CC(C)Nc1nc(C(F)F)cc2cnc(Nc3ccc(NC(=O)CCO)cn3)nc12` [Compound 98], for which the pIC50 in assay [1] and in assay [2] was ≤ 7.00 each time.

Regarding `CC(C)Nc1nc(C(F)F)cc2cnc(Nc3ccc(-c4ccccc4)cn3)nc12` [Compound 99], the pIC50 in assay [1] and in assay [2] was ≤ 7.00 each time.

`CC(C)Nc1nc(C(F)F)cc2cnc(Nc3ccc(-c4ccncc4)cn3)nc12` [Compound 100]: the pIC50 in assay [1] is 7.00 to 8.00; in assay [2], ≤ 7.00.

For `CC(C)Nc1nc(C(F)F)c(Cl)c2cnc(Nc3ccc(N4CCNCC4)cn3)nc12` [Compound 101], the results for the pIC50 in assay [1] and in assay [2] were > 8.00 and ≤ 7.00, respectively.

As to `COC(=O)CCc1ccc(Nc2ncc3cc(C(F)F)nc(NC(C)C)c3n2)nc1` [Compound 102], the values for the pIC50 in assay [1] and in assay [2] were 7.00 to 8.00 and ≤ 7.00, respectively.

With `CC(C)Nc1nc(C(F)F)cc2cnc(Nc3ccc(OCCN4CCCC4=O)cn3)nc12` [Compound 103], the pIC50 in assay [1] is > 8.00; in assay [2], ≤ 7.00.

`Cc1cccc(Nc2ncc3cc(C(F)F)nc(NC(C)C)c3n2)n1` [Compound 104]: the pIC50 in assay [1] was 7.00 to 8.00; in assay [2], ≤ 7.00.

Consider `CC(O)c1cc2cnc(Nc3ccc(N4CCNCC4)cn3)nc2c(NC(C)c2cc[nH]n2)n1` (stereo not shown) [Compound 105], for which the pIC50 was > 8.00 in assay [1] and ≤ 7.00 in assay [2].

In the case of `CC(O)c1cc2cnc(Nc3ccc(N4CCNCC4)cn3)nc2c(NC(C)c2cn[nH]c2)n1` (stereo not shown) [Compound 106], the pIC50 is > 8.00 in assay [1] and ≤ 7.00 in assay [2].

As to `CC(C)Nc1nc(C(F)F)cc2cnc(Nc3ccc(C4CCC(O)CC4)cn3)nc12` (stereo not shown) [Compound 107], the results for the pIC50 in assay [1] and in assay [2] were 7.00 to 8.00 and ≤ 7.00, respectively.
